Measurements: US20090163715A1, “Intermediate in Production of [2-(3,3,5,5-Tetramethylcyclohexyl)phenyl]Piperazine Compound” (EISAI R&D MANAGEMENT CO., LTD., priority 2005, published 2009)

Experiments:
[1] = test system: human peripheral blood neutrophils; assay: Human peripheral blood neutrophil adhesion system (PMA-stimulated adhesion to HUVEC immobilized plate); format: cell-based; settings: 0.75 h; BCECF-AM labeled human neutrophils on HUVEC immobilized plate, PMA stimulation, 37° C. for 45 minutes; read-out: IC50 (concentration which inhibited the increase in the number of adhered cells by the PMA-stimulation by 50%)
Procedure: To a plastic centrifugation tube containing 100 units of heparin sodium (Shimizu Pharmaceutical) was added 25 mL of fresh blood sampled from a healthy human. After adding and mixing therewith 8 mL of physiological saline (Otsuka Pharmaceutical) containing 6% Dextran (Nacalai), the mixture was allowed to stand at room temperature for 45 minutes for sedimentation of the erythrocytes. The resultant supernatant was transferred to another plastic centrifugation tube and combined with an equivalent volume of PBS, and then centrifuged at 1600 rpm for 7 minutes at room temperature. The obtained hematocyte fraction was suspended in 4 mL of PBS, and the suspension was superposed on 4 mL of Ficoll-Paque™ PLUS (Amersham Biosciences). […]
To 6.5 mL of RPMI-1640 medium (Sigma) containing 1 mg/mL of BSA were added 0.5 mL of a suspension of BCECF-AM labeled neutrophils at 5×10^7 cells/mL stored in ice, which was mixed, and the mixture was added at 80 μL/well to a HUVEC immobilized plate. […] The supernatant was removed from the plate, which was then washed several times with RPMI-1640 at 100 μL/well, and then PBS containing 0.1% NP-40 (Calbiochem) was added thereto at 100 μL/well and the fluorescent intensity was measured with an ARVO™SX 1420 multi label counter (Wallac) to determine the number of adhered cells.

Jurkat cells = assay: Jurkat cell adhesion system (PMA-stimulated adhesion to immobilized human fibronectin); format: cell-based; settings: Jurkat cells on human fibronectin-coated 96-well plate, PMA stimulation, 37° C. for 45-60 minutes; read-out: IC50 (concentration which inhibited the increase in the number of adhered cells by the PMA-stimulation by 50%)
Procedure: Human fibronectin (Becton Dickinson Biosciences) was diluted with phosphate-buffered saline (hereinafter abbreviated as PBS; Sigma) to 0.1-0.01 μg/mL, and the diluted solution was added to a 96-well plate (Becton Dickinson) at 50 μL/well, and allowed to stand overnight at 4° C. On the following day, the supernatant was removed from the plate, and then PBS containing 1% bovine serum albumin (hereinafter abbreviated as BSA; Sigma) was added thereto at 100 μL/well and incubation was performed at 37° C. for 2 hours in a CO2 incubator (Hirasawa).
The supernatant was removed from each plate and Jurkat cells suspended in RPMI-1640 (Sigma) containing 1 mg/mL BSA were added at 80 μL/well for 2.5×10^5 cells/well. The compound (B) diluted to different concentrations with RPMI-1640 containing […] BSA was immediately added at 10 μL/well, and then 100 nM phorbol myristate acetate (hereinafter abbreviated as PMA; Sigma) in RPMI-1640 containing 1 mg/mL BSA was added at 10 μL/well and the plate was incubated in a CO2 incubator at 37° C. for 45-60 minutes. […] After incubation, 50 mM glycine buffer (pH 10.4) containing 5 mM EDTA was added at 90 μL/well, and the absorbance at 405 nm was measured with an EL340 Automated Microplate Reader (BIO-TEK) to determine the adhered cell count.

IC50 [1]: 7.1 µM
IC50 (Jurkat cells): 4.7 µM
Compound: CC1(C)CC(c2ccccc2N2CCN(CC3CC3)CC2)CC(C)(C)C1 [compound (B), 1-Cyclopropylmethyl-4-[2-(3,3,5,5-tetramethylcyclohexyl)phenyl]piperazine methanesulfonate]
